Experimental data taken from patent US20250214925A1, “CATIONIC LIPID, LIPOSOME, LIPID NANOPARTICLE, AND USE” (CARCELL BIOPHARMA LTD., priority 2022, published 2025).
Values belong to the molecule of their own block, whether it stands above or below them.

Columns and labels:
[1] = mRNA encapsulation efficiency of LNP by Ribogreen assay; format: physicochemical; conditions: LNP: 50% cationic lipid, 38.5% cholesterol, 10% DSPC, 1.5% DMG-PEG2000; Ffluc mRNA
Method: (§1) 1. The cationic lipid (50 mg/mL) prepared in the above examples of the present disclosure, cholesterol (20 mg/mL), DSPC (20 mg/mL) and DMG-PEG2000 (20 mg/mL) were dissolved in ethanol, and the solution was placed in a 55° C. metal thermostatic bath as needed to aid dissolution, to obtain a lipid mixture with the following molar composition: 1.5% DMG-PEG2000, 50% cationic lipid, 38.5% cholesterol, and 10% DSPC.
(§2) 2. The mRNA encoding Ffluc was diluted with 10 mM pH 4.0 citrate buffer to prepare a 0.2 mg/mL mRNA solution.
(§3) 3. The lipid mixture prepared in step 1 was mixed with the mRNA solution prepared in step 2 using a syringe pump with a tee at a total flow rate of 40 mL/min.
(§4) 4. The LNP mixture was collected after the three-way mixing and placed in a dialysis bag with a molecular weight cut-off of 100 KDa.
(§5) 5. The LNP mixture was dialyzed overnight against 50 mM Tris-buffered saline, pH 7.4.
(§6) 6. Sieving, and subsequent measurement of the sieved LNP to measure the PDI of the LNP by dynamic laser light scattering; to measure the mRNA encapsulation efficiency and concentration by Ribogreen assay; and to measure the pKa by TNS-α assay.

[2] = test system: mice; assay: In vivo delivery of Ffluc mRNA LNP in mice, intravenous administration, luminescence relative to MC3; set-up: species or system mice (female Balb/C); conditions: fold change in luminescence intensity relative to MC3; 0.06 mg/kg tail vein; 6 h after injection
Method: The prepared encapsulation solution was applied to mice in the following manner, and its delivery efficiency in mice was tested. Among them, DLin-MC3-DMA (MC3) was a cationic liposome for delivering small nucleic acids that was approved by the FDA for marketing in 2018, which has high nucleic acid drug delivery efficiency and biosafety, and was usually used as the industry gold standard in the screening process of cationic lipids. In the evaluation of mice experiments, the ratio of nucleic acid delivery efficiency normalized to MC3 was greater than 0.1, which was considered to be a cationic lipid with high delivery efficiency.
1. The LNP solution was diluted with 50 mM TBS, pH 7.4 to a concentration of 0.1 mg/mL mRNA.
2. The mice involved in this study were female Balb/C, weighing 18-22 g, 6-8 weeks old, with 5 mice in each group.
3. The dosing solution was kept at 4° C. prior to injection.
4. Each mice received 0.06 mg/kg via tail vein injection.
5. The mice were injected intraperitoneally with 200 μL of 1.5 mg/mL D-luciferin solution 6 h after injection.
6. The in vivo luminescence images of the mice were obtained using the IVIS system (Aniview).
7. The luminescence intensity of each mice was measured using Aniview software.
8. MC3 lipid nanoparticles were used as a positive control. The in vivo efficacy of each cationic lipid tested was recorded as the fold change in luminescence intensity relative to MC3 (ratio normalized to MC3).

[3] = LNP size and PDI by dynamic laser light scattering; format: physicochemical; conditions: LNP: 50% cationic lipid, 38.5% cholesterol, 10% DSPC, 1.5% DMG-PEG2000; Ffluc mRNA
Method: as §1, §2, §3, §4, §5, §6

Structure (SMILES): CCCCC/C=C\C/C=C\CCCCCCCC(=O)OCC(COC(=O)C=C(CCCCCCCCCC)CCCCCCCCCC)COC(=O)OCCCCN(C)C (centres unmarked) [CPL-256, 3-((3-decyltridec-2-enoyl)oxy)-2-((((4-(dimethylamino)butyloxy)carbonyl)oxy)methyl)propyl(9Z,12Z)-octadeca-9,12-dienoate]
Encapsulation Rate [1]: 95%
In Vivo Efficacy Normalized To Mc3 In Mice (Intravenous Injection) [2]: 0.63
PDI [3]: 0.1009
Size (nm) [3]: 83.7 nm

Structure (SMILES): CCCCC/C=C\C/C=C\CCCCCCCC(=O)OCC(COC(=O)/C=C(\CCCCC)CCCCCC)COC(=O)OCCCN(CC)CC (centres unmarked) [CPL-266, 3-(((3-(diethylamino)propoxy)carbonyl)oxy)-2-((((E)-3-pentylnon-2-enoyl)oxy)methyl)propyl(9Z,12Z)-octadeca-9,12-dienoate]
Encapsulation Rate [1]: 97%
In Vivo Efficacy Normalized To Mc3 In Mice (Intravenous Injection) [2]: 0.72
PDI [3]: 0.0481
Size (nm) [3]: 68.11 nm

Structure (SMILES): CCCCC/C=C\C/C=C\CCCCCCCC(=O)OCC(COC(=O)/C=C(\CCCCCCC)CCCCCCCC)COC(=O)OCCCN(CC)CC (centres unmarked) [CPL-274, 3-(((3-(diethylamino)propoxy)carbonyl)oxy)-2-((((E)-3-heptylundec-2-enoyl)oxy)methyl)propyl(9Z,12Z)-octadeca-9,12-dienoate]
Encapsulation Rate [1]: 97%
In Vivo Efficacy Normalized To Mc3 In Mice (Intravenous Injection) [2]: 0.37
PDI [3]: 0.1812
Size (nm) [3]: 78.29 nm

Structure (SMILES): CCCCC/C=C\C/C=C\CCCCCCCC(=O)OCC(COC(=O)/C=C(\CCC)CCCCCC)COC(=O)OCC1CCN(C)C1 (centres unmarked) [CPL-324, 3-((((1-methylpyrrolidin-3-yl)methoxy)carbonyl)oxy)-2-((((E)-3-propylnon-2-enoyl)oxy)methyl)propyl(9Z,12Z)-octadeca-9,12-dienoate]
Encapsulation Rate [1]: 95%
In Vivo Efficacy Normalized To Mc3 In Mice (Intravenous Injection) [2]: 0.31
PDI [3]: 0.1961
Size (nm) [3]: 99.42 nm

Structure (SMILES): CCCCC/C=C\C/C=C\CCCCCCCC(=O)OCC(COC(=O)/C=C(/CCCCCCCC)CCCCCCCCCC)COC(=O)OCC1CCN(C)C1 (centres unmarked) [CPL-343, 3-((((1-methylpyrrolidin-3-yl)methoxy)carbonyl)oxy)-2-((((Z)-3-octyltridec-2-enoyl)oxy)methyl)propyl(9Z,12Z)-octadeca-9,12-dienoate]
Encapsulation Rate [1]: 85%
In Vivo Efficacy Normalized To Mc3 In Mice (Intravenous Injection) [2]: 0.44
PDI [3]: 0.1584
Size (nm) [3]: 116.3 nm

Structure (SMILES): CCCCC/C=C\C/C=C\CCCCCCCC(=O)OCC(COC(=O)/C=C(\CCCCC)CCCCCCCC)COC(=O)OCC1CCCN(C)C1 (centres unmarked) [CPL-377, 3-((((1-methylpiperidin-3-yl)methoxy)carbonyl)oxy)-2-((((E)-3-pentylundec-2-enoyl)oxy)methyl)propyl(9Z,12Z)-octadeca-9,12-dienoate]
Encapsulation Rate [1]: 94%
In Vivo Efficacy Normalized To Mc3 In Mice (Intravenous Injection) [2]: 0.45
PDI [3]: 0.1248
Size (nm) [3]: 88.31 nm

Structure (SMILES): CCCCC/C=C\C/C=C\CCCCCCCC(=O)OCC(COC(=O)/C=C(\CCCCC)CCCCCCCCCC)COC(=O)OCC1CCCN(C)C1 (centres unmarked) [CPL-378, 3-((((1-methylpiperidin-3-yl)methoxy)carbonyl)oxy)-2-((((E)-3-_pentyltridec-2-enoyl)oxy)methyl)propyl(9Z,12Z)-octadeca-9,12-dienoate]
Encapsulation Rate [1]: 96%
In Vivo Efficacy Normalized To Mc3 In Mice (Intravenous Injection) [2]: 0.43
PDI [3]: 0.1099
Size (nm) [3]: 82.38 nm

Structure (SMILES): CCCCC/C=C\C/C=C\CCCCCCCC(=O)OCC(COC(=O)/C=C(\CCCCCC)CCCCCCCCCC)COC(=O)OCC1CCCN(C)C1 (centres unmarked) [CPL-381, 3-(((E)-3-hexyltridec-2-enoyl)oxy)-2-(((((1-methylpiperidin-3-yl)methoxy)carbonyl)oxy)methyl)propyl(9Z,12Z)-octadeca-9,12-dienoate]
Encapsulation Rate [1]: 91%
In Vivo Efficacy Normalized To Mc3 In Mice (Intravenous Injection) [2]: 0.81
PDI [3]: 0.1174
Size (nm) [3]: 83.86 nm

Continued, in another order:

Encapsulation Rate [1]: 97%
PDI [3]: 0.1816
Size (nm) [3]: 90.31 nm
Structure (SMILES): CCCCC/C=C\C/C=C\CCCCCCCC(=O)OCC(COC(=O)/C=C(\CCCCCC)CCCCCCCC)COC(=O)OCCC1CCN(C)CC1 (centres unmarked) [CPL-292, 3-(((E)-3-hexylundec-2-enoyl)oxy)-2-((((2-(1-methylpiperidin-4-yl)ethoxy)carbonyl)oxy)methyl)propyl(9Z,12Z)-octadeca-9,12-dienoate]
In Vivo Efficacy Normalized To Mc3 In Mice (Intravenous Injection) [2]: 0.27

Encapsulation Rate [1]: 97%
PDI [3]: 0.0596
Size (nm) [3]: 75.57 nm
Structure (SMILES): CCCCC/C=C\C/C=C\CCCCCCCC(=O)OCC(COC(=O)/C=C(\CCCC)CCCCCCCC)COC(=O)OCC1CCN(C)C1 (centres unmarked) [CPL-329, 3-(((E)-3-butylundec-2-enoyl)oxy)-2-(((((1-methylpyrrolidin-3-yl)methoxy)carbonyl)oxy)methyl)propyl(9Z,12Z)-octadeca-9,12-dienoate]
In Vivo Efficacy Normalized To Mc3 In Mice (Intravenous Injection) [2]: 0.33

Encapsulation Rate [1]: 99%
PDI [3]: 0.1084
Size (nm) [3]: 83.4 nm
Structure (SMILES): CCCCC/C=C\C/C=C\CCCCCCCC(=O)OCC(COC(=O)/C=C(\CCCC)CCCCCCC)COC(=O)OCC1CCN(C)C1 (centres unmarked) [CPL-338, 3-(((E)-3-butyldec-2-enoyl)oxy)-2-(((((1-methylpyrrolidin-3-yl)methoxy)carbonyl)oxy)methyl)propyl(9Z,12Z)-octadeca-9,12-dienoate]
In Vivo Efficacy Normalized To Mc3 In Mice (Intravenous Injection) [2]: 0.52

Encapsulation Rate [1]: 98%
PDI [3]: 0.1182
Size (nm) [3]: 90.88 nm
Structure (SMILES): CCCCC/C=C\C/C=C\CCCCCCCC(=O)OCC(COC(=O)/C=C(/CCCC)CCCCCC)COC(=O)OCC1CCCN(C)C1 (centres unmarked) [CPL-372, 3-(((Z)-3-butylnon-2-enoyl)oxy)-2-(((((1-methylpiperidin-3-yl)methoxy)carbonyl)oxy)methyl)propyl(9Z,12Z)-octadeca-9,12-dienoate]
In Vivo Efficacy Normalized To Mc3 In Mice (Intravenous Injection) [2]: 1.01

Encapsulation Rate [1]: 97%
PDI [3]: 0.1733
Size (nm) [3]: 99.82 nm
Structure (SMILES): CCCCC/C=C\C/C=C\CCCCCCCC(=O)OCC(COC(=O)/C=C(\CCCCCC)CCCCCCC)COC(=O)OCC1CCCN(C)C1 (centres unmarked) [CPL-383]
In Vivo Efficacy Normalized To Mc3 In Mice (Intravenous Injection) [2]: 0.80

Encapsulation Rate [1]: 97%
PDI [3]: 0.1069
Size (nm) [3]: 95.77 nm
Structure (SMILES): CCCCC/C=C\C/C=C\CCCCCCCC(=O)OCC(COC(=O)/C=C(/CCCC)CCCCCC)COC(=O)OCCCN1CCN(C)CC1 (centres unmarked) [CPL-394, 3-(((Z)-3-butylnon-2-enoyl)oxy)-2-((((3-(4-methylpiperazin-1-y)propoxy)carbonyl)oxy)methyl)propyl(9Z,12Z)-octadeca-9,12-dienoate]
In Vivo Efficacy Normalized To Mc3 In Mice (Intravenous Injection) [2]: 0.13

Encapsulation Rate [1]: 97%
PDI [3]: 0.0562
Size (nm) [3]: 98.86 nm
Structure (SMILES): CCCCC/C=C\C/C=C\CCCCCCCC(=O)OCC(COC(=O)/C=C(\CCCCCCC)CCCCCCCCCC)COC(=O)OCCCN1CCN(C)CC1 (centres unmarked) [CPL-407, 3-(((E)-3-heptyltridec-2-enoyl)oxy)-2-((((3-(4-methylpiperazin-1-yl)propoxy)carbonyl)oxy)methyl)propyl(9Z,12Z)-octadeca-9,12-dienoate]
In Vivo Efficacy Normalized To Mc3 In Mice (Intravenous Injection) [2]: 0.21

Encapsulation Rate [1]: 96%
PDI [3]: 0.009
Size (nm) [3]: 91.52 nm
Structure (SMILES): CCCCC/C=C\C/C=C\CCCCCCCC(=O)OCC(COC(=O)/C=C(/CCCC)CCCCCC)COC(=O)OCCCN1CCCCC1 (centres unmarked) [CPL-416, 3-(((Z)-3-butylnon-2-enoyl)oxy)-2-((((3-(piperidin-1-yl)propoxy)carbonyl)oxy)methyl)propyl(9Z,12Z)-octadeca-9,12-dienoate]
In Vivo Efficacy Normalized To Mc3 In Mice (Intravenous Injection) [2]: 0.43

Encapsulation Rate [1]: 94%
PDI [3]: 0.1904
Size (nm) [3]: 82.69 nm
Structure (SMILES): CCCCC/C=C\C/C=C\CCCCCCCC(=O)OCC(COC(=O)/C=C(\CCCCC)CCCCCCCC)COC(=O)OCCCN1CCCCC1 (centres unmarked) [CPL-421, 3-(((E)-3-pentylundec-2-enoyl)oxy)-2-((((3-(piperidin-1-yl)propoxy)carbonyl)oxy)methyl)propyl(9Z,12Z)-octadeca-9,12-dienoate]
In Vivo Efficacy Normalized To Mc3 In Mice (Intravenous Injection) [2]: 0.37
